Measurements as given in US11707442B2, “Antibacterial and antifungal compounds” (The General Hospital Corporation, priority 2015, dated 2023).
Entries after “also recorded” stand apart in the source; their conditions may differ.

Columns and labels:
[1] = tested on: S. aureus, E. faecium, and A. baumannii; test: Static versus cidal assessment (MBC); assay type: cell-based; details: result in words
Protocol: Static versus cidal assessment: The minimum bactericidal concentration (MBC) was determined as follows: 10 μl of bacterial culture from each micro-well of the MIC assay was plated on MH agar and incubated at 35° C. overnight. The lowest compound concentration at which there was no bacterial colony growth was considered the MBC.

C. albicans biofilm = test: Biofilm growth on silicone pads; assay type: cell-based, Candida albicans; details: result in words
Protocol: C. albicans were grown in YPD medium overnight at 30° C., diluted to an OD600 of 0.5 in 2 mL Spider medium, and added to a well of a sterile 12-well plate containing a silicone pad measuring 1.5×1.5 cm that had been pretreated overnight with bovine serum (Sigma-Aldrich). The inoculated 12-well plate was incubated with gentle agitation (150 rpm) for 90 min at 37° C. for adhesion to occur. The samples were washed with 2 ml PBS, and after the 90-min incubation, and PBS wash, auranofin was added to fresh media at 4 μg/ml (n=4), 8 μg/ml (n=4), 16 μg/ml (n=4), and 32 μg/ml (n=4).
Control groups were included that contained C. albicans alone in Spider medium without auranofin (n=4) and a negative control group of Spider medium without any fungal cells (n=4).
The silicone pads with biofilm were removed from the wells, dried overnight, and weighed the following day. The total biomass (mg) of each biofilm was calculated by subtracting the weight of the platform material prior to biofilm growth from the weight after the drying period and adjusting for the weight of a control pad exposed to no cells.
Statistical significance among the different groups was determined by the analysis of variance (ANOVA) and the Tukey test using the Graph Pad Prism Program.

[2] = Checkerboard assay of auranofin with amphotericin B and fluconazole; assay type: cell-based; details: result in words
Protocol: (§1) Checkerboard assay (e.g., antibiotic synergy test): The antimicrobial or antifungal activity of a combination of a compound of present application with other agents was determined through a checkerboard assay. The checkerboard method for determining synergy of synthetic retinoids with conventional antibiotics can be conducted, for example, as previously described (See, e.g., Rajamuthiah, R. et al. A defensin from the model beetle Tribolium castaneum acts synergistically with telavancin and daptomycin against multidrug resistant Staphylococcus aureus. PLoS ONE 10, e0128576 (2015)) The compounds whose combinations were being tested were arrayed in serial concentrations, vertically for one compound and horizontally for the other compound in the same 96 well microplate. 2-fold serial dilutions of each retinoid were combined with 2-fold serial dilutions of each conventional antibiotic, which created an 8×8 matrix in a 96-well microtiter plate. The rest of the procedure involving addition of pathogen and measurement of growth was carried out as described for measurement of MIC.
(§2) The Fractional Inhibitory Concentration (FIC) index for two compounds, A and B, is defined by the following equation: FIC=((A/MIC^A)+(B/MIC^B)). MIC^A and NIC^B are MICs of compound A or B respectively. […]

C. albicans = test: Static versus cidal assessment (MFC); assay type: cell-based, Candida albicans; details: result in words
Protocol: The minimum fungicidal concentration was (MFC) was determined as follows: 10 μl of yeast culture from each micro-well of the MIC assay was plated on YPD agar and incubated at 35° C. overnight. The lowest compound concentration at which there was no fungal colony growth was considered the MFC.

E. faecalis = test: Disc clearing assay; assay type: cell-based, Enterococcus faecalis; details: result in words
Protocol: (§3) Disc clearing assay: The disc diffusion test was performed on Mueller Hinton (MH) agar plates for bacterial cultures and yeast extract, peptone, dextrose (YPD) for fungal cultures. The assay was repeated 3 times. Discs were soaked in 10 μl of either DMSO or 10 mg/ml compound stock solution and air-dried. Three hundred microliters of an overnight culture of bacteria or fungi were spread on plates. After completely drying the agar plate in a laminar flow hood, DMSO or compound impregnated discs were overlaid on the plate and incubated at 35° C. for 18 hrs.

C. glabrata = test: Disc clearing assay; assay type: cell-based, Candida glabrata; details: result in words
Protocol: as §3

E. faecium [3] = test: Disc clearing assay; assay type: cell-based, Enterococcus faecium; details: result in words
Protocol: as §3

B. subtilis = test: Disc clearing assay; assay type: cell-based, Bacillus subtilis; details: result in words
Protocol: as §3

C. tropicalis = test: Disc clearing assay; assay type: cell-based, Candida tropicalis; details: result in words
Protocol: as §3

A. baumannii = test: Disc clearing assay; assay type: cell-based, Acinetobacter baumannii; details: result in words
Protocol: as §3

MRSA strain MW2 = test: Checkerboard assay (combination); assay type: cell-based, Staphylococcus aureus; details: result in words
Protocol: as §1
The Fractional Inhibitory Concentration (FIC) index for two compounds, A and B, is defined by the following equation: FIC=((A/MIC^A)+(B/MIC^B)). MIC^A and NIC^B are MICs of compound A or B respectively. (A) is the lowest concentration of compound A in combination with compound B that inhibits growth of a pathogen and (B) is the lowest concentration of compound B that inhibits growth of a pathogen.
Optical densities at 600 nm were measured after 18 h of incubation at 37° C. The results represent three independent experiments.

C. parapsilosis = test: Disc clearing assay; assay type: cell-based, Candida parapsilosis; details: result in words
Protocol: as §3

C. neoformans [4] = test: Disc clearing assay; assay type: cell-based, Cryptococcus neoformans; details: impregnated filter; result in words
Protocol: as §3

C. neoformans [5] = test: Checkerboard assay with oxidizing agents; assay type: cell-based, Cryptococcus neoformans; details: result in words
Protocol: as §1, §2

S. aureus = test: Disc clearing assay; assay type: cell-based, Staphylococcus aureus; details: result in words
Protocol: as §3
The disc diffusion test was carried out in triplicate on cation-adjusted Miller-Hinton agar. 6 mm discs were impregnated with 50 μg of compounds and air-dried. Three hundred microliters of an overnight S. aureus MW2 culture was spread on an agar plate and air-dried. The antimicrobial discs were overlaid on the plate and incubated at 37° C. for 20 hrs.

E. faecium [6] = test: Checkerboard assay with glutathione; assay type: cell-based, Enterococcus faecium; details: result in words
Protocol: as §1, §2

| Compound | static versus cidal nature of the inhibition [1] | C. albicans biofilm formation (C. albicans biofilm) | interaction with amphotericin B and fluconazole [2] | static versus cidal activity against C. albicans (C. albicans) | zone of inhibition, E. faecalis (E. faecalis) | zones of inhibition, C. glabrata (C. glabrata) | zone of inhibition, E. faecium (E. faecium [3]) | zone of inhibition, B. subtilis (B. subtilis) | zones of inhibition, C. tropicalis (C. tropicalis) | zone of inhibition, A. baumannii (A. baumannii) | interaction with hydrogen peroxide (MRSA strain MW2; S. aureus) | zones of inhibition, C. parapsilosis (C. parapsilosis) | clearing of C. neoformans (C. neoformans [4]) | MIC change in the presence of menadione (C. neoformans [5]) | interaction with diamide and hydrogen peroxide (C. neoformans [5]) | zone of inhibition, S. aureus (S. aureus) | inhibition of E. faecium by the agent alone (E. faecium [6]) | inhibition of S. aureus by the agent alone (MRSA strain MW2) |
| --- | --- | --- | --- | --- | --- | --- | --- | --- | --- | --- | --- | --- | --- | --- | --- | --- | --- | --- |
| CC[P](CC)(CC)=[Au][S][C@@H]1O[C@H](COC(C)=O)[C@@H](OC(C)=O)[C@H](OC(C)=O)[C@H]1OC(C)=O [Auranofin, 2,3,4,6-tetra-o-acetyl-1-thio-D-glucanpyranosato-S-(triethyl-phosphine)-gold] | bacteriostatic at the MIC concentration but bactericidal at higher concentrations | not significantly reduced | additive effects but not synergism | fungistatic | clearing; also recorded: zone of inhibition | zones of inhibition | zone of inhibition | clearing; also recorded: zone of inhibition | zones of inhibition | zone of inhibition | did not provide any synergistic activity | zones of inhibition | clearing | no change in MIC | additive effect | zone of inhibition |  |  |
| N[C@@H](CCC(=O)N[C@@H](CS)C(=O)NCC(=O)O)C(=O)O [Glutathione] |  |  |  |  |  |  |  |  |  |  |  |  |  |  |  |  | did not inhibit | did not inhibit |
